Each structure is given as a SMILES string.

The record followed here is US6653301B2, “Pyrazole compounds useful as protein kinase inhibitors” (Vertex Pharmaceuticals Incorporated, priority 2000, dated 2003).

A word on the melting point: it is the temperature of the solid-liquid transition. In the case of `COc1cccc(Nc2nc(Nc3cc(C)n[nH]3)c3ccccc3n2)c1` [IIc-56, [2-(3-Methoxyphenylamino)-quinazolin-4-yl]-(5-methyl-2H-pyrazol-3-yl)-amine], the melting point lay within 212 to 215 °C.
